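GI50 marks 50% less growth. TGI: total growth inhibition.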
How the values were obtained:
Experiment in all cases: NCI tumour cell line growth inhibition, 384-well format
HL-60(TB) leukemia = system: HL-60(TB) leukemia
SN12C renal = system: SN12C renal
SK-OV-3 ovarian = system: SK-OV-3 ovarian
OVCAR-8 ovarian = system: OVCAR-8 ovarian
NCI-H322M lung = system: NCI-H322M lung
NCI-H23 lung = system: NCI-H23 lung
HCC-2998 colon = system: HCC-2998 colon
NCI-H460 NSCLC = system: NCI-H460 NSCLC
MDA-MB-435 melanoma = system: MDA-MB-435 melanoma
HT29 colon = system: HT29 colon
OVCAR-3 ovarian = system: OVCAR-3 ovarian
UACC-257 melanoma = system: UACC-257 melanoma
NCI-H522 lung = system: NCI-H522 lung
MDA-MB-468 breast = system: MDA-MB-468 breast
M14 melanoma = system: M14 melanoma
SF-539 CNS = system: SF-539 CNS
TK-10 renal = system: TK-10 renal
SR leukemia = system: SR leukemia
HCT-15 colon = system: HCT-15 colon
SK-MEL-5 melanoma = system: SK-MEL-5 melanoma
MDA-MB-231 breast = system: MDA-MB-231 breast
A549 NSCLC = system: A549 NSCLC
EKVX NSCLC = system: EKVX NSCLC
SNB-75 CNS = system: SNB-75 CNS
CAKI-1 renal = system: CAKI-1 renal
HOP-92 NSCLC = system: HOP-92 NSCLC
U251 glioblastoma = system: U251 glioblastoma
SNB-19 CNS = system: SNB-19 CNS
UACC-62 melanoma = system: UACC-62 melanoma
PC-3 prostate = system: PC-3 prostate
BT-549 breast = system: BT-549 breast
MALME-3M melanoma = system: MALME-3M melanoma
IGROV1 ovarian = system: IGROV1 ovarian
SK-MEL-28 melanoma = system: SK-MEL-28 melanoma
NCI-H226 lung = system: NCI-H226 lung
T-47D breast = system: T-47D breast
RXF 393 renal = system: RXF 393 renal
SF-268 CNS = system: SF-268 CNS
DU-145 prostate = system: DU-145 prostate
HS 578T breast = system: HS 578T breast
ACHN renal = system: ACHN renal
A498 renal = system: A498 renal
NCI/ADR-RES ovarian = system: NCI/ADR-RES ovarian
HOP-62 NSCLC = system: HOP-62 NSCLC
LOX IMVI melanoma = system: LOX IMVI melanoma
MOLT-4 leukemia = system: MOLT-4 leukemia
OVCAR-5 ovarian = system: OVCAR-5 ovarian
HCT-116 colon = system: HCT-116 colon
OVCAR-4 ovarian = system: OVCAR-4 ovarian
MCF7 breast = system: MCF7 breast
SF-295 CNS = system: SF-295 CNS
COLO 205 colon = system: COLO 205 colon
KM12 colon = system: KM12 colon
RPMI-8226 leukemia = system: RPMI-8226 leukemia
786-0 renal = system: 786-0 renal
UO-31 renal = system: UO-31 renal
K-562 leukemia = system: K-562 leukemia

In the case of `NC(=O)c1cnc(N[C@@H]2CCCC[C@@H]2N)nc1Nc1cccc(-n2nccn2)c1`, the GI50 (HL-60(TB) leukemia) was 12.6 nM, the TGI (HL-60(TB) leukemia) was 153 nM and the GI50 (SN12C renal) was 178 nM. The TGI (SN12C renal) was 1630 nM, the GI50 (SK-OV-3 ovarian) was 623 nM and the TGI (SK-OV-3 ovarian) was 2820 nM. The GI50 (OVCAR-8 ovarian) was 1140 nM, the TGI (OVCAR-8 ovarian) was 2410 nM and the GI50 (NCI-H322M lung) was 1130 nM. For the same compound, the TGI (NCI-H322M lung) was 2430 nM, the GI50 (NCI-H23 lung) was 801 nM and the TGI (NCI-H23 lung) was 2150 nM. It also gave a GI50 (HCC-2998 colon) of 415 nM, a TGI (HCC-2998 colon) of 1850 nM and a GI50 (NCI-H460 NSCLC) of 1410 nM. The TGI (NCI-H460 NSCLC) was 2770 nM, the GI50 (MDA-MB-435 melanoma) was 571 nM and the TGI (MDA-MB-435 melanoma) was 1920 nM. The GI50 (HT29 colon) was 502 nM, the TGI (HT29 colon) was 1980 nM and the GI50 (OVCAR-3 ovarian) was 1020 nM. It also gave a TGI (OVCAR-3 ovarian) of 2300 nM, a GI50 (UACC-257 melanoma) of 1100 nM and a TGI (UACC-257 melanoma) of 2300 nM. The GI50 (NCI-H522 lung) was 274 nM, the TGI (NCI-H522 lung) was 1590 nM and the GI50 (MDA-MB-468 breast) was 1440 nM. For the same compound, the TGI (MDA-MB-468 breast) was 2810 nM, the GI50 (M14 melanoma) was 714 nM and the TGI (M14 melanoma) was 2030 nM. For the same compound, the GI50 (SF-539 CNS) was 1290 nM, the TGI (SF-539 CNS) was 2590 nM and the GI50 (TK-10 renal) was 438 nM. For the same compound, the TGI (TK-10 renal) was 1840 nM, the GI50 (SR leukemia) was 183 nM and the TGI (SR leukemia) was 1470 nM. It also gave a GI50 (HCT-15 colon) of 1230 nM, a TGI (HCT-15 colon) of 2610 nM and a GI50 (SK-MEL-5 melanoma) of 145 nM. It also gave a TGI (SK-MEL-5 melanoma) of 1130 nM, a GI50 (MDA-MB-231 breast) of 1150 nM and a TGI (MDA-MB-231 breast) of 3770 nM. It also gave a GI50 (A549 NSCLC) of 1310 nM, a TGI (A549 NSCLC) of 2700 nM and a GI50 (EKVX NSCLC) of 1420 nM. It also gave a TGI (EKVX NSCLC) of 2920 nM, a GI50 (SNB-75 CNS) of 1410 nM and a TGI (SNB-75 CNS) of 3230 nM. The GI50 (CAKI-1 renal) was 473 nM, the TGI (CAKI-1 renal) was 1830 nM and the GI50 (HOP-92 NSCLC) was 1270 nM. It also gave a TGI (HOP-92 NSCLC) of 2980 nM, a GI50 (U251 glioblastoma) of 1390 nM and a TGI (U251 glioblastoma) of 2750 nM. It also gave a GI50 (SNB-19 CNS) of 1310 nM, a TGI (SNB-19 CNS) of 4000 nM and a GI50 (UACC-62 melanoma) of 305 nM. The TGI (UACC-62 melanoma) was 1810 nM, the GI50 (PC-3 prostate) was 617 nM and the TGI (PC-3 prostate) was 2430 nM. For the same compound, the GI50 (BT-549 breast) was 848 nM, the TGI (BT-549 breast) was 2110 nM and the GI50 (MALME-3M melanoma) was 1230 nM. It also gave a TGI (MALME-3M melanoma) of 2490 nM, a GI50 (IGROV1 ovarian) of 631 nM and a TGI (IGROV1 ovarian) of 2290 nM. The GI50 (SK-MEL-28 melanoma) was 1380 nM, the TGI (SK-MEL-28 melanoma) was 2690 nM and the GI50 (NCI-H226 lung) was 1210 nM. For the same compound, the TGI (NCI-H226 lung) was 2510 nM, the GI50 (T-47D breast) was 1410 nM and the TGI (T-47D breast) was 2780 nM. It also gave a GI50 (RXF 393 renal) of 1510 nM, a TGI (RXF 393 renal) of 2910 nM and a GI50 (SF-268 CNS) of 1560 nM. It also gave a TGI (SF-268 CNS) of 3110 nM, a GI50 (DU-145 prostate) of 1250 nM and a TGI (DU-145 prostate) of 2980 nM. The GI50 (HS 578T breast) was 1080 nM, the TGI (HS 578T breast) was 2320 nM and the GI50 (ACHN renal) was 1280 nM. For the same compound, the TGI (ACHN renal) was 2570 nM, the GI50 (A498 renal) was 1040 nM and the TGI (A498 renal) was 2260 nM. The GI50 (NCI/ADR-RES ovarian) was 9300 nM, the TGI (NCI/ADR-RES ovarian) was 21500 nM and the GI50 (HOP-62 NSCLC) was 462 nM. For the same compound, the TGI (HOP-62 NSCLC) was 2060 nM, the GI50 (LOX IMVI melanoma) was 372 nM and the TGI (LOX IMVI melanoma) was 1450 nM. It also gave a GI50 (MOLT-4 leukemia) of 1140 nM, a TGI (MOLT-4 leukemia) of 2370 nM and a GI50 (OVCAR-5 ovarian) of 769 nM. For the same compound, the TGI (OVCAR-5 ovarian) was 2340 nM, the GI50 (HCT-116 colon) was 1030 nM and the TGI (HCT-116 colon) was 2320 nM. The GI50 (OVCAR-4 ovarian) was 236 nM, the TGI (OVCAR-4 ovarian) was 1980 nM and the GI50 (MCF7 breast) was 225 nM. For the same compound, the TGI (MCF7 breast) was 1770 nM, the GI50 (SF-295 CNS) was 1650 nM and the TGI (SF-295 CNS) was 3060 nM. The GI50 (COLO 205 colon) was 761 nM, the TGI (COLO 205 colon) was 2060 nM and the GI50 (KM12 colon) was 410 nM. It also gave a TGI (KM12 colon) of 1690 nM, a GI50 (RPMI-8226 leukemia) of 227 nM and a TGI (RPMI-8226 leukemia) of 1350 nM.

`Cc1c(C#N)cccc1-c1cc(-c2cn(Cc3cccc(C(C)(C)O)n3)nn2)nc(N)n1` was tested, and the GI50 (SK-OV-3 ovarian) was 33800 nM, the TGI (SK-OV-3 ovarian) was over 100000 nM and the GI50 (MDA-MB-435 melanoma) was 36000 nM. The TGI (MDA-MB-435 melanoma) was over 100000 nM, the GI50 (HT29 colon) was 41100 nM and the TGI (HT29 colon) was over 100000 nM. It also gave a GI50 (UACC-257 melanoma) of 25700 nM, a TGI (UACC-257 melanoma) of 79000 nM and a GI50 (NCI-H522 lung) of 18300 nM. For the same compound, the TGI (NCI-H522 lung) was 62400 nM, the GI50 (MDA-MB-468 breast) was 368 nM and the TGI (MDA-MB-468 breast) was 28700 nM. It also gave a GI50 (M14 melanoma) of 57800 nM, a TGI (M14 melanoma) of over 100000 nM and a GI50 (TK-10 renal) of 24000 nM. For the same compound, the TGI (TK-10 renal) was 96300 nM, the GI50 (MDA-MB-231 breast) was 30500 nM and the TGI (MDA-MB-231 breast) was over 100000 nM. It also gave a GI50 (EKVX NSCLC) of 32100 nM, a TGI (EKVX NSCLC) of over 100000 nM and a GI50 (SNB-75 CNS) of 53200 nM. The TGI (SNB-75 CNS) was over 100000 nM, the GI50 (PC-3 prostate) was 29900 nM and the TGI (PC-3 prostate) was over 100000 nM. It also gave a GI50 (MALME-3M melanoma) of 25200 nM, a TGI (MALME-3M melanoma) of 96400 nM and a GI50 (T-47D breast) of 15200 nM. It also gave a TGI (T-47D breast) of 50900 nM, a GI50 ([…]-0 renal) of 38200 nM and a TGI (786-0 renal) of over 100000 nM. The GI50 (NCI/ADR-RES ovarian) was 17500 nM, the TGI (NCI/ADR-RES ovarian) was 44500 nM and the GI50 (UO-31 renal) was 19000 nM. It also gave a TGI (UO-31 renal) of 62500 nM, a GI50 (K-562 leukemia) of 25300 nM and a TGI (K-562 leukemia) of over 100000 nM. It also gave a GI50 (SF-295 CNS) of 25600 nM, a TGI (SF-295 CNS) of 95800 nM and a GI50 (KM12 colon) of 334 nM. The TGI (KM12 colon) was over 100000 nM, the GI50 (RPMI-8226 leukemia) was 14900 nM and the TGI (RPMI-8226 leukemia) was 31500 nM.

— PubChem BioAssay (NCI)
